Test results published in ChEMBL document CHEMBL5150024, “Design and synthesis of TPP+-Mitomycin C conjugate with reduced toxicity” (Bioorg Med Chem Lett, 2022).
pIC50: −log10 of the molar value. One block for each compound: values may come before it. The source made the active and inactive calls. The calls are words filed in the database; no cut-off is given here.

Tests used:
A549 [1] = test: Antiproliferative activity against human A549 cells assessed as inhibition of cell growth incubated for 48 hrs by MTT assay; type: functional, cell-based; settings: A549, 48 h
MDA-MB-231 = test: Antiproliferative activity against human MDA-MB-231 cells assessed as inhibition of cell growth incubated for 48 hrs by MTT assay; type: functional, cell-based; settings: MDA-MB-231, 48 h
[2] = Cytotoxicity against human L02 cells assessed as inhibition of cell growth incubated for 48 hrs by MTT assay; type: toxicity, cell-based
MCF7 = test: Antiproliferative activity against human MCF7 cells assessed as inhibition of cell growth incubated for 48 hrs by MTT assay; type: functional, cell-based; settings: MCF7, 48 h
[3] = Cytotoxicity against HUVEC assessed as inhibition of cell growth incubated for 48 hrs by MTT assay; type: toxicity, cell-based; settings: human
PC-3 = test: Antiproliferative activity against human PC-3 cells assessed as inhibition of cell growth incubated for 48 hrs by MTT assay; type: functional, cell-based; settings: PC-3, 48 h
A-375 = test: Antiproliferative activity against human A-375 cells assessed as inhibition of cell growth incubated for 48 hrs by MTT assay; type: functional, cell-based; settings: A-375, 48 h
HCT-116 = test: Antiproliferative activity against human HCT-116 cells assessed as inhibition of cell growth incubated for 48 hrs by MTT assay; type: functional, cell-based; settings: HCT-116, 48 h
A549 [4] = test: Induction of apoptosis in human A549 cells assessed as total apoptotic cells at 1 uM incubated for 48 hrs by Annexin V-FITC/PI staining based flow cytometric analysis relative to control; type: functional
A549 [5] = test: Induction of cell cycle arrest in human A549 cells assessed as G2 phase cells at 1 uM incubated for 24 hrs by flow cytometric analysis (reference value: 15.75 %); type: functional
A549 [6] = test: Induction of cell cycle arrest in human A549 cells assessed as G2 phase cells at 2 uM incubated for 24 hrs by flow cytometric analysis (reference value: 15.75 %); type: functional
A549 [7] = test: Inhibition of cell invasion in human A549 cells at 2 to 4 uM incubated for 24 hrs by transwell invasion assay; type: functional, cell-based; settings: dose 2-4 µM
[8] = Toxicity in mouse assessed as effect on liver pathology at 10 to 20 mg/kg, ip administered for 7 days and measured every 2 days; type: organism-based; settings: in vivo, 168 h, dose 10-20 mg/kg, time 7 day
A549 [9] = test: Induction of cell cycle arrest in human A549 cells assessed as G2 phase cells at 4 uM incubated for 24 hrs by flow cytometric analysis (reference value: 15.75 %); type: functional
A549 [10] = test: Induction of apoptosis in human A549 cells assessed as total apoptotic cells at 4 uM incubated for 48 hrs by Annexin V-FITC/PI staining based flow cytometric analysis relative to control; type: functional
[11] = Toxicity in mouse assessed as effect on kidney pathology at 10 to 20 mg/kg, ip administered for 7 days and measured every 2 days; type: organism-based; settings: in vivo, 168 h, dose 10-20 mg/kg, time 7 day
[12] = Toxicity in mouse assessed as effect on lung pathology at 10 to 20 mg/kg, ip administered for 7 days and measured every 2 days; type: organism-based; settings: in vivo, 168 h, dose 10-20 mg/kg, time 7 day
A549 [13] = test: Induction of cell cycle arrest in human A549 cells assessed as G1 phase cells at 1 uM incubated for 24 hrs by flow cytometric analysis (reference value: 60.75 %); type: functional
[14] = Toxicity in mouse assessed as effect on body weight at 20 mg/kg, ip administered for 7 days and measured every 2 days; type: organism-based; settings: in vivo, 168 h, time 7 day
[15] = Toxicity in mouse assessed as effect on spleen pathology at 10 to 20 mg/kg, ip administered for 7 days and measured every 2 days; type: organism-based; settings: in vivo, 168 h, dose 10-20 mg/kg, time 7 day
A549 [16] = test: Antiproliferative activity against human A549 cells assessed as inhibition of cell growth preincubated with FCCP for 1 hrs followed by compound addition and measured after 48 hrs by MTT assay; type: functional, cell-based
A549 [17] = test: Induction of cell cycle arrest in human A549 cells assessed as S phase cells at 2 uM incubated for 24 hrs by flow cytometric analysis (reference value: 23.49 %); type: functional
A549 [18] = test: Induction of cell cycle arrest in human A549 cells assessed as S phase cells at 4 uM incubated for 24 hrs by flow cytometric analysis (reference value: 23.49 %); type: functional
[19] = Toxicity in mouse assessed as effect on heart pathology at 10 to 20 mg/kg, ip administered for 7 days and measured every 2 days; type: organism-based; settings: in vivo, 168 h, dose 10-20 mg/kg, time 7 day
A549 [20] = test: Inhibition of cell migration in human A549 cells at 2 uM incubated for 48 hrs by wound healing assay; type: functional, cell-based
A549 [21] = test: Induction of apoptosis in human A549 cells at 4 uM by Annexin V-FITC/PI staining based flow cytometric analysis; type: functional, cell-based; settings: time 12-48 hrs, TDE = time-dependent effect
A549 [22] = test: Induction of cell cycle arrest in human A549 cells assessed as G1 phase cells at 4 uM incubated for 24 hrs by flow cytometric analysis (reference value: 60.75 %); type: functional
A549 [23] = test: Induction of cell cycle arrest in human A549 cells assessed as G1 phase cells at 2 uM incubated for 24 hrs by flow cytometric analysis (reference value: 60.75 %); type: functional
A549 [24] = test: Induction of mitochondrial membrane depolarization in human A549 cells assessed as increase in JC-1 monomer ratio at 2 to 8 uM incubated for 24 hrs by JC-1 staining based flow cytometric analysis; type: functional, cell-based; settings: dose 2-8 µM
A549 [25] = test: Induction of cell cycle arrest in human A549 cells assessed as S phase cells at 1 uM incubated for 24 hrs by flow cytometric analysis (reference value: 23.49 %); type: functional
[26] = Toxicity in mouse assessed as death at 10 to 20 mg/kg, ip administered for 7 days and measured every 2 days; type: organism-based; settings: in vivo, 168 h, dose 10-20 mg/kg, time 7 day
A549 [27] = test: Induction of mitochondrial membrane depolarization in human A549 cells assessed as increase in green fluorescence by measuring JC-1 monomer at 2 to 8 uM incubated for 4 hrs by JC-1 dye based assay; type: functional, cell-based; settings: dose 2-8 µM
A549 [28] = test: Induction of mitochondrial membrane depolarization in human A549 cells assessed as loss of red fluorescence at 2 to 8 uM incubated for 4 hrs by TMRM staining based fluorescence assay; type: functional, cell-based; settings: dose 2-8 µM
[29] = Toxicity in mouse assessed as clinical signs at 10 to 20 mg/kg, ip administered for 7 days and measured every 2 days; type: organism-based; settings: in vivo, 168 h, dose 10-20 mg/kg, time 7 day
A549 [30] = test: Induction of apoptosis in human A549 cells assessed as total apoptotic cells at 2 uM incubated for 48 hrs by Annexin V-FITC/PI staining based flow cytometric analysis relative to control; type: functional

pIC50 (A549 [1]): 5.88
pIC50 (MDA-MB-231): 5.12
pIC50 (MCF7): 5.18
pIC50 (PC-3): 4.92
pIC50 (A-375): 5.73
pIC50 (HCT-116): 5.91
SMILES: CO[C@@]12[C@H](COC(N)=O)C3=C(C(=O)C(C)=C(N)C3=O)N1C[C@H]1[C@@H]2N1C(=O)CCCCCCC[P+](c1ccccc1)(c1ccccc1)c1ccccc1
IC50 at 48 h [2]: > 20 µM
IC50 at 48 h [3]: > 20 µM

pIC50 (A549 [1]): 6.17
pIC50 (MDA-MB-231): 5.58
pIC50 (MCF7): 5.34
pIC50 (PC-3): 6.01
pIC50 (A-375): 6.19
pIC50 (HCT-116): 6.12
SMILES: CO[C@@]12[C@H](COC(N)=O)C3=C(C(=O)C(C)=C(N)C3=O)N1C[C@H]1[C@@H]2N1C(=O)CCCCCCCCCCC[P+](c1ccccc1)(c1ccccc1)c1ccccc1
IC50 at 48 h [2]: > 2.5 µM
IC50 at 48 h [3]: > 5 µM

SMILES: CO[C@@]12[C@H](COC(N)=O)C3=C(C(=O)C(C)=C(N)C3=O)N1C[C@H]1[C@@H]2N1CCCCCCCCCC[P+](c1ccccc1)(c1ccccc1)c1ccccc1 (some centres undefined)
pIC50 (A549 [1]): 5.55
pIC50 (MDA-MB-231): 5.71
IC50 at 48 h [2]: > 5 µM
pIC50 (MCF7): 5.50
IC50 at 48 h [3]: 10 µM
pIC50 (PC-3): 5.33
pIC50 (A-375): 5.71
pIC50 (HCT-116): 5.71

SMILES: CO[C@@]12[C@H](COC(N)=O)C3=C(C(=O)C(C)=C(N)C3=O)N1C[C@H]1[C@@H]2N1C(=O)CCCCCCCCC[P+](c1ccccc1)(c1ccccc1)c1ccccc1.[Br-]
Activity (A549 [4]): 18%
Activity (A549 [5]): 34.21%
Activity (A549 [6]): 44.68%
inhibition (A549 [7]): Active
Activity [8]: Non-Toxic
Activity (A549 [9]): 14.35%
pIC50 (A549 [1]): 5.96
Activity (A549 [10]): 24.9%
pIC50 (MDA-MB-231): 5.51
Activity [11]: Non-Toxic
Activity [12]: Non-Toxic
Activity (A549 [13]): 14.87%
Activity [14]: Non-Toxic
Activity [15]: Non-Toxic
IC50 at 48 h [2]: > 20 µM
pIC50 (A549 [16]): 4.95
Activity (A549 [17]): 49.53%
pIC50 (MCF7): 5.26
Activity (A549 [18]): 84.94%
Activity [19]: Non-Toxic
inhibition (A549 [20]): Active
IC50 at 48 h [3]: > 20 µM
Activity (A549 [21]): Tde
Activity (A549 [22]): 0.72%
Activity (A549 [23]): 5.79%
pIC50 (PC-3): 5.22
pIC50 (A-375): 5.84
Activity (A549 [24]): Active
Activity (A549 [25]): 50.92%
Activity [26]: Non-Toxic
Activity (A549 [27]): Active
Activity (A549 [28]): Active
Activity [29]: Non-Toxic
pIC50 (HCT-116): 5.91
Activity (A549 [30]): 20.2%
